The values below come from patent US5580775A, “High affinity, brain-specific nucleic acids encoding a L-proline transporter, and vectors, and host cells comprising the same” (Emory University, priority 1992, dated 1996).

As usually defined, the Ki is a dissociation constant, usually derived from enzyme kinetics or from competition with a known ligand. Broadly, the Km is the concentration of substrate that gives half-maximal velocity.

Series [1] deals with T1, rat brain L-proline transporter (Rattus norvegicus, UniProt P28573).
T1 sequence (P28573 1-637): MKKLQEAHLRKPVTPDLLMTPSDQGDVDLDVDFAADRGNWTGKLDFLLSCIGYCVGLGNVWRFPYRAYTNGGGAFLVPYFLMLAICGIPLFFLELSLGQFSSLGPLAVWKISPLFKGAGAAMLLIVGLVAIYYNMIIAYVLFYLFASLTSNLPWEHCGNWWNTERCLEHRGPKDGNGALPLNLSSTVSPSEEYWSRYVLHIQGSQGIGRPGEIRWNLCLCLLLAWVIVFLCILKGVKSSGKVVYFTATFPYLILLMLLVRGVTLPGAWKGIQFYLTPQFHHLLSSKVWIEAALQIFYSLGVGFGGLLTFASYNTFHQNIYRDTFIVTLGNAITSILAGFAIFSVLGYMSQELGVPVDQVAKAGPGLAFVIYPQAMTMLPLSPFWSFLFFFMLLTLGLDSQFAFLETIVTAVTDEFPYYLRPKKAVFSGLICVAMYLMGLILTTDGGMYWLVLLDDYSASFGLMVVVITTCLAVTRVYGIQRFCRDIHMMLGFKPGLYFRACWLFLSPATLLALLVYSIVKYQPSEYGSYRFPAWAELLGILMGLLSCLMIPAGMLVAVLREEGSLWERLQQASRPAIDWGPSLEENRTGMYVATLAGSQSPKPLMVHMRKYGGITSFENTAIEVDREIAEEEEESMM
Kind of series: cell-based.

For series [2], the target named is T1, rat brain L-proline transporter. Kind of series: Transport of L-[3H]glutamate or D-[3H]aspartate in HeLa fibroblasts expressing the transporter cDNA. The class given is cell-based. The conditions noted are these: transient expression in HeLa fibroblasts.
Series [3] deals with T2, high affinity, Na^+ -dependent rat brain L-proline transporter (Rattus norvegicus, UniProt P28573).
T2 sequence (P28573 1-637): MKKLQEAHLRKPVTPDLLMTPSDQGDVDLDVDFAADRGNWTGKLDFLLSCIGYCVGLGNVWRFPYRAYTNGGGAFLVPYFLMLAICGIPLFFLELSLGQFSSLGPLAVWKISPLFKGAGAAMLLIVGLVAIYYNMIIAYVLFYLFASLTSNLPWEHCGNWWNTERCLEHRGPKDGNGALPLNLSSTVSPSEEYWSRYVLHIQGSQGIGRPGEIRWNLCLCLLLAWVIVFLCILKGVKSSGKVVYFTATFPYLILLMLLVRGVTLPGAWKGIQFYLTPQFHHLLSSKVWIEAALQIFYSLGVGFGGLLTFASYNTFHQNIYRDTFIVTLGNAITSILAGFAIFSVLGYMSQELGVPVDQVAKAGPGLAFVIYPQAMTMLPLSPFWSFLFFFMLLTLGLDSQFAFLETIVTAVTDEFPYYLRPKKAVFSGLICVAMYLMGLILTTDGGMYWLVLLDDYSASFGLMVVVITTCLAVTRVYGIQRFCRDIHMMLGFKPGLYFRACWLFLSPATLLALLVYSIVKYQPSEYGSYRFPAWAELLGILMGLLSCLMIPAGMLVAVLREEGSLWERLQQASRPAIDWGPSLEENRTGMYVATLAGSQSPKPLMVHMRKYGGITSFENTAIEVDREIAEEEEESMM
The experiment in a line: L-proline uptake (saturation kinetics, Na+ dependence) in HeLa cells transfected with pPROT.

The test system of the next series is rat brain synaptosomes. The conditions noted are these: cited from earlier work.
Substrate in series [4]: O=C(O)[C@@H]1CCCN1
The experiment in a line: cells, lysate or membranes. The conditions noted are these: other: 20 min incubation, 50 nM L-[3H]proline plus unlabeled L-proline, HeLa cells transfected with pPROT.

[5] abbreviates: read-out: Ki values in excess of 100 μM (inhibition of proline uptake).
[6] abbreviates: Ki (inhibition of proline uptake).
Where [7] appears, read: read-out: Ki (inhibition of proline uptake).

Where two headings read alike, the source gives them in different places. Peptide text beside a SMILES is read from it. A value given as a limit tells only on which side of the number the result lay.

For the molecule `O=C(O)[C@H]1CCCN[C@H]1C(=O)O` (racemic) [(+/-)cis-2,3-piperidine dicarboxylic acid], the Ki in series [1] (setting [5]) was more than 100 µM. Consider `N[C@]1(C(=O)O)CC[C@H](C(=O)O)C1` (relative stereo) [Trans-ACPD, trans1-aminocyclopentane-1,3-dicarboxylic acid], for which, in series [1] (setting [5]), the inhibitory constant (Ki) is more than 100 µM.

Consider `NC1(C(=O)O)CC1` [1-Amino-1-cyclopropane carboxylic acid], for which the Ki in series [1] (setting [5]) is more than 100 µM.

Consider `O=C(O)C1C=CCN1` (stereo not drawn) [3,4-Dehydroproline], for which the affinity in series [1] (setting [6]), expressed as Ki, was 31 µM. In the case of `N[C@H](CC(=O)O)C(=O)O` [D-Aspartic acid], in series [2], the “transport induced by the transporter cDNA (in words)” value is “did not induce transport”. For the same molecule, the inhibition constant Ki in series [1] (setting [5]) was more than 100 µM. As to `CCCC[C@@H](N)C(=O)O` [D-Norleucine], in series [1] (setting [5]), the Ki is more than 100 µM. For `O=C(O)[C@H]1CCCN1` [D-Proline], the Ki in series [1] (Ki (inhibition of L-[3H]proline transport)) and in series [1] (setting [5]) was more than 100 µM in each case. In the case of `NCCCC(=O)O` [GABA, gammaaminobutyric acid], the Ki in series [1] (setting [5]) is more than 100 µM. For the molecule `NCC(=O)O` [Glycine], in series [1] (setting [5]), the Ki was more than 100 µM. On to `NCC(=O)N1CCC[C@H]1C(=O)O` [Glycylproline] (H-Gly-Pro-OH), for which, in series [1] (setting [5]), the Ki was more than 100 µM.

Take `NC1CCN(O)C1=O` (stereo not drawn) [HA-966, 3-Amino-1-hydroxy-2-pyrrolidone]: the Ki in series [1] (setting [5]) is more than 100 µM. With `O=C(O)[C@@H]1C[C@@H](O)CN1` [Hydroxyproline], the Ki in series [1] (setting [5]) was more than 100 µM. Same read-out and setting: in the case of `N[C@H](C(=O)O)c1cc(=O)[nH]o1` [Ibotenic acid] it was more than 100 µM. Still for that read-out and setting: in the case of `C=C(C)[C@H]1CN[C@H](C(=O)O)[C@H]1CC(=O)O` [Kainic acid] it was more than 100 µM; in that of `C[C@H](N)C(=O)O` [L-Alanine], more than 100 µM. In the case of `N=C(N)NCCC[C@H](N)C(=O)O` [L-Arginine], the inhibition constant (Ki) in series [1] (setting [5]) was more than 100 µM. Same read-out and setting: in the case of `NC(=O)C[C@H](N)C(=O)O` [L-Asparagine] it was more than 100 µM.

Regarding `N[C@@H](CC(=O)O)C(=O)O` [L-Aspartic acid], in series [1], the “inhibition of L-proline uptake (in words)” value (from here on “inhibition”) was “inability”. Also, the Ki in series [1] (setting [5]) was more than 100 µM. Consider `O=C(O)[C@@H]1CCN1` [L-Azetidine-2-carboxylic acid], for which the inhibition constant Ki is 115 µM in series [1] (setting [7]) and more than 100 µM in series [1] (setting [5]). `N[C@@H](CS)C(=O)O` [L-Cysteine] gave a Ki in series [1] (setting [6]) of 91 µM. For `N[C@@H](CSSC[C@H](N)C(=O)O)C(=O)O` [L-Cystine], the inhibitory constant (Ki) in series [1] (setting [5]) is more than 100 µM.

On to `N[C@@H](CCC(=O)O)C(=O)O` [L-Glutamic acid], for which, in series [2], the “transport induced by the transporter cDNA (in words)” value is given as “did not induce transport”. For the same molecule, the “inhibition” value in series [1] is recorded as “inability”. In series [1] (setting [5]), the Ki is more than 100 µM. Regarding `NC(=O)CC[C@H](N)C(=O)O` [L-Glutamine], the Ki in series [1] (setting [5]) is more than 100 µM. In series [1] (setting [6]), `N[C@@H](Cc1c[nH]cn1)C(=O)O` [L-Histidine] displayed a Ki of 83 µM.

Regarding `CC[C@H](C)[C@H](N)C(=O)O` [L-Isoleucine], the Ki in series [1] (setting [5]) is more than 100 µM. As to `CC(C)C[C@H](N)C(=O)O` [L-Leucine], the inhibition constant Ki in series [1] (setting [5]) is more than 100 µM. On the same count and under the same terms, in the case of `NCCCC[C@H](N)C(=O)O` [L-Lysine] it was more than 100 µM. As to `CSCC[C@H](N)C(=O)O` [L-Methionine], the inhibition constant (Ki) in series [1] (setting [5]) was more than 100 µM.

For the molecule `CCCC[C@H](N)C(=O)O` [L-Norleucine], the affinity in series [1] (setting [6]) corresponds to a Ki of 37 µM.

On to `N[C@@H](Cc1ccccc1)C(=O)O` [L-Phenylalanine], for which the inhibition constant (Ki) in series [1] (setting [6]) was found to be 48 µM. On the same count and under the same terms, in the case of `O=C(O)[C@@H]1CCCCN1` [L-Pipecolic acid] it was 14 µM. With `NC(=O)[C@@H]1CCCN1` [L-Prolinamide], the Ki in series [1] (setting [5]) was more than 100 µM. For `COC(=O)[C@@H]1CCCN1` [L-Proline methyl ester], the Ki in series [1] (setting [5]) was more than 100 µM. Still for that read-out and setting: in the case of `O=C1CC[C@@H](C(=O)O)N1` [L-Pyroglutamic acid] it was more than 100 µM; in that of `N[C@@H](CO)C(=O)O` [L-Serine], more than 100 µM. On the same count and under the same terms, in the case of `C[C@@H](O)[C@H](N)C(=O)O` [L-Threonine] it was more than 100 µM. Take `O=C(O)[C@H]1CN[C@H](C(=O)O)C1` [L-Trans-2,4-PDC, trans-L-pyrrolidone-2,4-dicarboxylate]: the “inhibition” value in series [1] was “none of the excitatory amino acid analogs examined, including the specific L-glutamate uptake blocker, trans-L-pyrrolidone-2, 4-dicarboxylate (L-trans-2,4-PDC) (Bridges et al., 1991), significantly inhibited L-proline uptake”. Further, the Ki in series [1] (setting [5]) was more than 100 µM. For `N[C@@H](Cc1c[nH]c2ccccc12)C(=O)O` [L-Tryptophan], the Ki in series [1] (setting [5]) was more than 100 µM.

Turning to `N[C@@H](Cc1ccc(O)cc1)C(=O)O` [L-Tyrosine], the Ki in series [1] (Ki values in excess of 100 μM (inhibition of proline uptake)) is more than 100 µM. For the molecule `CC(C)[C@H](N)C(=O)O` [L-Valine], the Ki in series [1] (setting [5]) is more than 100 µM. Consider `O=C(O)[C@@H]1CCCN1` [L-proline], for which, in series [3] (Na+ dependence, choline chloride), the “specific L-proline uptake upon isotonic substitution of NaCl with choline chloride” value is “abolished”. Besides, the Michaelis-Menten constant (Km) was approximately 9.7 µM in series [3] (read-out: apparent Michaelis constant (Km), 20 min incubation, 50 nM L-[3H]proline plus unlabeled L-proline, HeLa cells transfected with pPROT); 6 to 12 µM in the series on rat brain synaptosomes (read-out: Km, high affinity component, high affinity); more than 190 µM in the series on rat brain synaptosomes (read-out: Km, low affinity component, low affinity); more than 200 µM in the series on HeLa cells (read-out: Km of endogenous L-proline transport, plasmid vector-transfected HeLa cells). Also, the “endogenous L-proline transport as percent of pPROT-induced transport” value in the series with HeLa cells is “less than 10%”. With `CC(=O)N1CCC[C@H]1C(=O)O` [N-acetylproline], in series [1] (setting [5]), the Ki was more than 100 µM. Still for that read-out and setting: in the case of `CN[C@H](CC(=O)O)C(=O)O` [N-methyl-D-aspartate] it was more than 100 µM. The same measure, in the same setting: in the case of `O=C(O)CNC(=O)[C@@H]1CCCN1` [Prolylglycine] (H-Pro-Gly-OH) it was more than 100 µM. `O=C(O)c1ccc[nH]1` [Pyrrole-2-carboxylic acid]: the inhibition constant (Ki) in series [1] (setting [5]) is more than 100 µM. Same read-out and setting: in the case of `N[C@@H](Cn1oc(=O)[nH]c1=O)C(=O)O` [Quisqualic acid] it was more than 100 µM. As to `CNCC(=O)O` [Sarcosine], the Ki in series [1] (setting [7]) amounted to 30 µM.

B1: high affinity, Na^+ -dependent rat brain L-proline transporter (Rattus norvegicus) (protein)
chain: MKKLQEAHLRKPVTPDLLMTPSDQGDVDLDVDFAADRGNWTGKLDFLLSCIGYCVGLGNVWRFPYRAYTNGGGAFLVPYFLMLAICGIPLFFLELSLGQFSSLGPLAVWKISPLFKGAGAAMLLIVGLVAIYYNMIIAYVLFYLFASLTSNLPWEHCGNWWNTERCLEHRGPKDGNGALPLNLSSTVSPSEEYWSRYVLHIQGSQGIGRPGEIRWNLCLCLLLAWVIVFLCILKGVKSSGKVVYFTATFPYLILLMLLVRGVTLPGAWKGIQFYLTPQFHHLLSSKVWIEAALQIFYSLGVGFGGLLTFASYNTFHQNIYRDTFIVTLGNAITSILAGFAIFSVLGYMSQELGVPVDQVAKAGPGLAFVIYPQAMTMLPLSPFWSFLFFFMLLTLGLDSQFAFLETIVTAVTDEFPYYLRPKKAVFSGLICVAMYLMGLILTTDGGMYWLVLLDDYSASFGLMVVVITTCLAVTRVYGIQRFCRDIHMMLGFKPGLYFRACWLFLSPATLLALLVYSIVKYQPSEYGSYRFPAWAELLGILMGLLSCLMIPAGMLVAVLREEGSLWERLQQASRPAIDWGPSLEENRTGMYVATLAGSQSPKPLMVHMRKYGGITSFENTAIEVDREIAEEEEESMM
In the case of B1, the Km in series [4] amounted to 9.7 µM.
